# Assay results: ChEMBL document CHEMBL1123151, “Carbocyclic analogues of 5'-amino-5'-deoxy- and 3'-amino-3'-deoxythymidines” (1986)
# Columns and labels:
# L929 [1] = experiment: Compound was tested for inhibition against replication of type 1 herpes simplex virus (HSV-1,strain 377) in L929 cells; assay type: functional, Mus musculus
# L929 [2] = experiment: Compound was tested for inhibition against replication of type 1 herpes simplex virus (HSV-1,strain 377) in L929 cells; Experiment 2; assay type: functional, Mus musculus
# L929 [3] = experiment: Compound was tested for inhibition against replication of type 1 herpes simplex virus (HSV-2,strain MS) in L929 cells; assay type: functional, Mus musculus
# Vero [4] = experiment: Compound was tested for inhibition against replication of type 1 herpes simplex virus (HSV-1,strain 377) in vero cells; Experiment 2; assay type: functional, Chlorocebus sabaeus
# Vero [5] = experiment: Compound was tested for inhibition against replication of type 1 herpes simplex virus (HSV-1,strain 377) in vero cells; Experiment 3; assay type: functional, Chlorocebus sabaeus
# Vero [6] = experiment: Compound was tested for inhibition against replication of type 1 herpes simplex virus (HSV-1,strain 377) in vero cells; Experiment 4; assay type: functional, Chlorocebus sabaeus
# [7] = Ratio of the virus rating of the thymidine analogue to the virus rating of ara-A in vero cells; Experiment 2; assay type: functional
# [8] = Ratio of the virus rating of the thymidine analogue to the virus rating of ara-A in vero cells; Experiment 3; assay type: functional
# [9] = Ratio of the virus rating of the thymidine analogue to the virus rating of ara-A in vero cells; Experiment 4; assay type: functional
# L929 [10] = experiment: Compound was tested for inhibition against replication of type 1 herpes simplex virus (HSV-1,strain 377) L929 cells; assay type: functional, Mus musculus
# [11] = Ratio of the virus rating of the thymidine analogue to the virus rating of ara-A; assay type: functional
# HEp-2 = experiment: Compound was tested for inhibition against replication of type 1 herpes simplex virus (HSV-1,strain HF) in human epidermoid carcinoma cells; assay type: functional
# L929 [12] = experiment: Compound was tested for inhibition against replication of type 1 herpes simplex virus (HSV-1,strain 377) in L929 cells; Experiment 1; assay type: functional, Mus musculus
# [13] = Ratio of the virus rating of the thymidine analogue to the virus rating of ara-A; Experiment 1; assay type: functional
# [14] = Ratio of the virus rating of the thymidine analogue to the virus rating of ara-A; Experiment 2; assay type: functional
# Vero [15] = experiment: Compound was tested for inhibition against replication of type 1 herpes simplex virus (HSV-1,strain 377) in vero cells; assay type: functional, Chlorocebus sabaeus
# Vero [16] = experiment: Compound was tested for inhibition against replication of type 1 herpes simplex virus (HSV-1, strain 377) in vero cells; Experiment 2; assay type: functional, Chlorocebus sabaeus
# Vero [17] = experiment: Compound was tested for inhibition against replication of type 1 herpes simplex virus (HSV-1, strain 377) in vero cells; Experiment 5; assay type: functional, Chlorocebus sabaeus
smiles,measurement,setting,value
Cc1cn([C@@H]2C[C@H](CO)[C@H](N=[N+]=[N-])C2)c(=O)[nH]c1=O,VR,L929 [1],0.2
same,VR,L929 [2],0
same,VR,L929 [3],0
same,VR,Vero [4],0.6
same,VR,Vero [5],1
same,VR,Vero [6],0.8
same,Ratio,[7],0.43
same,Ratio,[8],0.5
same,Ratio,[9],0.44
Cc1cn([C@@H]2C[C@H](CO)[C@@H](N)C2)c(=O)[nH]c1=O,VR,L929 [10],0.4
same,VR,Vero [4],0
same,VR,Vero [6],0.4
same,Ratio,[11],0
Cc1cn(C2CC(O)C(CN)C2)c(=O)[nH]c1=O (stereo not given),VR,HEp-2,0.2
same,VR,L929 [12],3
same,VR,L929 [2],1.8
same,VR,L929 [3],0.5
same,VR,Vero [5],0
same,VR,Vero [6],0
same,Ratio,[13],1
same,Ratio,[14],1.28
Cc1cn([C@@H]2C[C@H](CO)[C@@H](N=[N+]=[N-])C2)c(=O)[nH]c1=O,VR,Vero [15],0
Cc1cn(C2CC(O)C(CN=[N+]=[N-])C2)c(=O)[nH]c1=O (stereo not given),VR,HEp-2,0
same,VR,L929 [1],0.8
same,VR,L929 [3],0
same,Ratio,[11],0.27
Cc1cn([C@@H]2C[C@H](CO)[C@H](N)C2)c(=O)[nH]c1=O,VR,L929 [2],0.9
same,VR,Vero [16],0
same,VR,Vero [17],0
same,Ratio,[14],0.9
